Values after ≈ are worked out from the molar mass of the structure shown. Values joined by “and” are separate entries in the source; they are usually repeats but may differ in a detail not shown here. Equal values may be shown once. Blank lines part the entries; values can stand above or below the compound they belong to.
Tests used:
Assay in all cases: ≥ marks a high value that may be exact or a test limit, other limits are often not marked, values filed in µg/mL are converted to µM
[1] = system: Acinetobacter baumannii ATCC 19606
[2] = system: Acinetobacter baumannii
[3] = system: Aspergillus flavus
[4] = system: Bacillus megaterium
[5] = system: Bacillus subtilis JC443
[6] = system: Candida albicans ATCC 90028
[7] = system: Candida parapsilosis ATCC 22019
[8] = system: Enterococcus faecalis ATCC 29212
[9] = system: Escherichia coli ATCC 35218
[10] = system: Escherichia coli D21
[11] = system: Escherichia coli JC113
[12] = system: Escherichia coli ML-35p
[13] = system: Escherichia coli
[14] = system: Klebsiella pneumoniae ATCC 700603
[15] = system: Klebsiella pneumoniae
[16] = system: Listeria ivanovii
[17] = system: Pseudomonas aeruginosa ATCC 27853
[18] = system: Pseudomonas aeruginosa ATCC 9027
[19] = system: Pseudomonas aeruginosa JC115
[20] = system: Saccharomyces cerevisiae
[21] = system: Staphylococcus aureus ATCC 43300
[22] = system: Staphylococcus aureus ATCC BAA-44
[23] = system: Staphylococcus aureus JC114
[24] = system: Staphylococcus aureus USA 100
[25] = system: Staphylococcus aureus USA 300
[26] = system: Staphylococcus aureus
[27] = system: Streptococcus pyogenes ATCC 19615
[28] = system: Escherichia coli HP101BA 7601c
[29] = system: Klebsiella pneumoniae PTCC 1388
[30] = system: Staphylococcus aureus PTCC 1431
[31] = system: Streptococcus agalactiae PTCC 1365
[32] = system: Streptococcus dysgalactiae PTCC 1074
[33] = system: Bordetella bronchiseptica CUN 11844-99
[34] = system: Escherichia coli ATCC 25922
[35] = system: Pseudomonas aeruginosa CUN 4158-02
[36] = system: Staphylococcus aureus ATCC 25923
[37] = system: Staphylococcus aureus CUN 3792-99
[38] = system: Stenotrophomonas maltophilia CUN 3998-00
[39] = system: Aeromonas salmonicida NCIMB 1102
[40] = system: Bacillus subtilis IAM 1026
[41] = system: Escherichia coli JCM 1649
[42] = system: Photobacterium damselae subsp. piscicida Sp 9587
[43] = system: Salmonella typhimurium
[44] = system: Shewanella putrefaciens IAM 1509
[45] = system: Staphylococcus aureus IAM 1011
[46] = system: Vibrio anguillarum NCIMB 829
[47] = system: Vibrio parahaemolyticus Vp+1

- MIC [1]: > 100 µM
- MIC [2]: ≥ 100 µM
- MIC [3]: ≥ 200 µM
- MIC [4]: 3 µM (≈ 3.23 µg/mL)
- MIC [5]: ≥ 149 µM
- MIC [6]: ≥ 100 µM
- MIC [7]: ≥ 50 µM
- MIC [8]: 50 µM and 100 µM
- MIC [9]: ≥ 200 µM
- MIC [10]: ≥ 100 µM
- MIC [11]: ≥ 116 µM
- MIC [12]: 30 µM (≈ 32.3 µg/mL)
- MIC [13]: > 100 µM
- MIC [14]: > 100 µM
- MIC [15]: > 100 µM
- MIC [16]: ≥ 50 µM
- MIC [17]: > 200 µM and 100 µM
- MIC [18]: > 100 µM
- MIC [19]: ≥ 88 µM
- MIC [20]: 12.5 µM (≈ 13.4 µg/mL)
- MIC [21]: > 100 µM
- MIC [22]: 25 µM (≈ 26.9 µg/mL)
- MIC [23]: ≥ 121 µM
- MIC [24]: ≥ 50 µM
- MIC [25]: ≥ 50 µM
- MIC [26]: 100 µM (≈ 108 µg/mL)
- MIC [27]: 25 µM (≈ 26.9 µg/mL)
SMILES: CC[C@H](C)[C@H](NC(=O)[C@H](CCCN=C(N)N)NC(=O)[C@H](CO)NC(=O)[C@H](CC(C)C)NC(=O)[C@H](Cc1ccccc1)NC(=O)[C@H](Cc1ccccc1)NC(=O)[C@@H](N)Cc1ccccc1)C(=O)N[C@@H](Cc1ccccc1)C(N)=O [FFFLSRIF]

- MIC [28]: 15.3 µM (≈ 24.2 µg/mL)
- MIC [29]: 19.7 µM (≈ 31.2 µg/mL)
- MIC [30]: 22.2 µM (≈ 35.2 µg/mL)
- MIC [31]: 15.6 µM (≈ 24.7 µg/mL)
- MIC [32]: 20.9 µM (≈ 33.2 µg/mL)
SMILES: CC(C)C[C@H](NC(=O)[C@H](C)NC(=O)[C@H](C)NC(=O)[C@H](CC(N)=O)NC(=O)[C@H](Cc1ccccc1)NC(=O)[C@H](CC(C)C)NC(=O)[C@@H]1CCCN1C(=O)[C@H](CCCCN)NC(=O)[C@H](CC(C)C)NC(=O)[C@@H](N)Cc1ccccc1)C(=O)N[C@@H](CCCCN)C(=O)N[C@@H](CC(C)C)C(=O)N[C@@H](CC(C)C)C(=O)N1CCC[C@H]1C(N)=O [FLKPLFNAALKLLP]

- MIC [1]: 5.73 µM (≈ 16 µg/mL)
- MIC [33]: 1.43 µM (≈ 4 µg/mL)
- MIC [34]: 5.73 µM (≈ 16 µg/mL)
- MIC [17]: 5.73 µM (≈ 16 µg/mL)
- MIC [35]: 11.5 µM (≈ 32 µg/mL)
- MIC [36]: 5.73 µM (≈ 16 µg/mL)
- MIC [21]: 5.73 µM (≈ 16 µg/mL)
- MIC [37]: 5.73 µM (≈ 16 µg/mL)
- MIC [38]: 22.9 µM (≈ 64 µg/mL)
SMILES: NCCCC[C@H](NC(=O)CN)C(=O)N[C@@H](CCCCN)C(=O)N[C@@H](Cc1ccc(O)cc1)C(=O)N[C@@H](CCCN=C(N)N)C(=O)N[C@@H](CCCN=C(N)N)C(=O)N[C@@H](Cc1ccccc1)C(=O)N[C@@H](CCCN=C(N)N)C(=O)N[C@@H](Cc1c[nH]c2ccccc12)C(=O)N[C@@H](CCCCN)C(=O)N[C@@H](Cc1ccccc1)C(=O)N[C@@H](CCCN=C(N)N)C(=O)N[C@@H](CCCCN)C(=O)NCC(=O)N[C@@H](CCCN=C(N)N)C(=O)N[C@@H](Cc1ccccc1)C(=O)N[C@@H](Cc1c[nH]c2ccccc12)C(=O)N[C@@H](Cc1ccccc1)C(=O)N[C@@H](Cc1c[nH]c2ccccc12)C(=O)NCC(N)=O [GKKYRRFRWKFRKGRFWFWG]

- MIC [39]: 9.06 µM (≈ 25 µg/mL)
- MIC [40]: 2.27 µM (≈ 6.25 µg/mL)
- MIC [41]: 4.53 µM (≈ 12.5 µg/mL)
- MIC [42]: 2.27 µM (≈ 6.25 µg/mL)
- MIC [43]: 4.53 µM (≈ 12.5 µg/mL)
- MIC [44]: 2.27 µM (≈ 6.25 µg/mL)
- MIC [45]: 4.53 µM (≈ 12.5 µg/mL)
- MIC [46]: 4.35 µM (≈ 12 µg/mL)
SMILES: CC[C@H](C)[C@H](NC(=O)[C@H](CCCCN)NC(=O)CNC(=O)[C@H](CC(C)C)NC(=O)[C@@H](NC(=O)[C@H](CCCCN)NC(=O)[C@H](CCCNC(=N)N)NC(=O)[C@H](Cc1c[nH]c2ccccc12)NC(=O)[C@@H](N)CC(N)=O)[C@@H](C)CC)C(=O)N[C@@H](C)C(=O)N[C@@H](CCCCN)C(=O)N[C@H](C(=O)N[C@@H](C)C(=O)N[C@@H](C)C(=O)NCC(=O)N[C@@H](CC(C)C)C(=O)N[C@@H](CC(C)C)C(=O)NCC(=O)N[C@@H](CO)C(=O)N[C@@H](CCSC)C(=O)N[C@@H](CC(C)C)C(=O)N[C@@H](C)C(=O)NCC(=O)N[C@@H](Cc1ccc(O)cc1)C(=O)N[C@@H](CCC(N)=O)C(=O)N[C@H](C(=O)O)C(C)C)C(C)C [NWRKILGKIAKVAAGLLGSMLAGYQV]
- MIC [47]: 9.06 µM (≈ 25 µg/mL)

Reference: DBAASP
